Assay results from ChEMBL document CHEMBL3585305, “Structure-Based Design and Optimization of Multitarget-Directed 2H-Chromen-2-one Derivatives as Potent Inhibitors of Monoamine Oxidase B and Cholinesterases” (J Med Chem, 2015).
Active and inactive are the calls of the source. The rule behind the calls is not given here.

Assays:
[1] = target: T1, Amine oxidase [flavin-containing] A (Rattus norvegicus, UniProt P21396); experiment: Inhibition of rat brain MAO-A using kynuramine substrate […] by spectrophotometric assay
T1 sequence (P21396 whole entry): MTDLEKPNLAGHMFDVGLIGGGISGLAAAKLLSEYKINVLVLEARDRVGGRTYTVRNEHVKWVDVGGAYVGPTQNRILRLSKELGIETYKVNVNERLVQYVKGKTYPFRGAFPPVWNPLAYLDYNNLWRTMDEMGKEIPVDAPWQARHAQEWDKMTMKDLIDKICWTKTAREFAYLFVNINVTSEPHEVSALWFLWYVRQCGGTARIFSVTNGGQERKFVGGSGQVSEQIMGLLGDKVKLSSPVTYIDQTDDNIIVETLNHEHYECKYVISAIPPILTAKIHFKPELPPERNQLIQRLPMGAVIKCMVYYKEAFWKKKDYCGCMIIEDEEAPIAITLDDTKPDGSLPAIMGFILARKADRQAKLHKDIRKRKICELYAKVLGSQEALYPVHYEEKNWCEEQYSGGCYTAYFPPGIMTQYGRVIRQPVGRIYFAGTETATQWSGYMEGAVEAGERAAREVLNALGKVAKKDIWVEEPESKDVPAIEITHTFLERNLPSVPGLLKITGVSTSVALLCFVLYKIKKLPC

[2] = target: T2, Amine oxidase [flavin-containing] B (Rattus norvegicus, UniProt P19643); experiment: Inhibition of rat brain MAO-B using kynuramine substrate […] by spectrophotometric assay
T2 sequence (P19643 whole entry): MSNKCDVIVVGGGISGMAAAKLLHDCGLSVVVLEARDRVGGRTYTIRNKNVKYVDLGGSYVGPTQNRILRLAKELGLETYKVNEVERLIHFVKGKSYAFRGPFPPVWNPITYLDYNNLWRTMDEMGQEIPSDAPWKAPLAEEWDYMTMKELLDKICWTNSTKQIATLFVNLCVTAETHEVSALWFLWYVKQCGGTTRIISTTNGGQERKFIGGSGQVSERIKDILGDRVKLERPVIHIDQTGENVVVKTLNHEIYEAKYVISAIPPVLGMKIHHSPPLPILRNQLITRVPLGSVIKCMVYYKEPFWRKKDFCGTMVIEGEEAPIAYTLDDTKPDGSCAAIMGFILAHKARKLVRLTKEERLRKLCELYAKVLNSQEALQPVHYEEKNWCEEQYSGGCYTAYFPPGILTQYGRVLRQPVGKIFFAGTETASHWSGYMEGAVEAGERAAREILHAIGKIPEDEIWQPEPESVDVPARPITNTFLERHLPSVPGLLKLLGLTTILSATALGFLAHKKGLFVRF

[3] = target: T3, Acetylcholinesterase (Electrophorus electricus, UniProt O42275); experiment: Inhibition of electric eel AChE by spectrophotometric Ellman's method
[4] = target: Cholinesterase (Equus caballus, UniProt P81908); experiment: Inhibition of equine serum BuChE by spectrophotometric Ellman's method
[5] = target: T4, Amine oxidase [flavin-containing] A (Homo sapiens, UniProt P21397); experiment: Inhibition of human recombinant MAO-A using kynuramine substrate by spectrophotometric assay
T4 sequence (P21397 whole entry): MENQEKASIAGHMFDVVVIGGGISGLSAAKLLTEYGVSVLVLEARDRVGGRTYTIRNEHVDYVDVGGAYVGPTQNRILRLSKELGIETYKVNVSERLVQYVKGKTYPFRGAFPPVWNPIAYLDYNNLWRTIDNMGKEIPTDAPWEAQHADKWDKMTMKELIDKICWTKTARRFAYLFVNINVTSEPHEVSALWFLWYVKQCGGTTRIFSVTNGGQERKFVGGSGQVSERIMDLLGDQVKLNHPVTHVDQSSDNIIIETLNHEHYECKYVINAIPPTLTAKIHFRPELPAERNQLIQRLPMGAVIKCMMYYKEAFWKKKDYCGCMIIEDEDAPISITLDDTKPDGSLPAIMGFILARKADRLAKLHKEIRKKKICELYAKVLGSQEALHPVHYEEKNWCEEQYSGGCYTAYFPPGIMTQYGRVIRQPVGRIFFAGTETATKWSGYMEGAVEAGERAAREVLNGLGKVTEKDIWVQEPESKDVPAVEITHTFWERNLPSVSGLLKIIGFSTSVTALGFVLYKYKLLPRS

[6] = target: T5, Amine oxidase [flavin-containing] B (Homo sapiens, UniProt P27338)
T5 sequence (P27338 whole entry): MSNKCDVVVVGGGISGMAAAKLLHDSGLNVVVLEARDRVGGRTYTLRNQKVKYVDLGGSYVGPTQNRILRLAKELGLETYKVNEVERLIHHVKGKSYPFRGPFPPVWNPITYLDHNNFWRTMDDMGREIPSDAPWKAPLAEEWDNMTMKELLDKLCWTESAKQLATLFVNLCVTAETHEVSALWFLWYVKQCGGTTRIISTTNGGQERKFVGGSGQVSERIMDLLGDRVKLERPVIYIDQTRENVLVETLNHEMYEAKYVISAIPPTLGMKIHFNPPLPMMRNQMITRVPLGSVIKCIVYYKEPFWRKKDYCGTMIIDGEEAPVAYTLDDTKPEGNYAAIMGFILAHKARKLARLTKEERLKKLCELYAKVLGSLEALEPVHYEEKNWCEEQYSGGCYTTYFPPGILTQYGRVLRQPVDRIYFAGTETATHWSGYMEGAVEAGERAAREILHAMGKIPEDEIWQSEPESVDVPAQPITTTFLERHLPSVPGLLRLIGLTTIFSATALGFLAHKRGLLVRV
Description: Inhibition of human recombinant MAO-B using kynuramine substrate by spectrophotometric assay

[7] = target: Acetylcholinesterase (Homo sapiens, UniProt P22303); experiment: Inhibition of human recombinant AChE by spectrophotometric Ellman's method
[8] = target: T6, Cholinesterase (Homo sapiens, UniProt P06276); experiment: Inhibition of human serum BuChE by spectrophotometric Ellman's method
[9] = organism: Rattus norvegicus; experiment: Selectivity index, ratio of IC50 for rat brain MAO-A to IC50 for rat brain MAO-B
[10] = target: T3, Acetylcholinesterase; experiment: Mixed type inhibition of electric eel AChE by Lineweaver-Burk plot
[11] = target: T1, Amine oxidase [flavin-containing] A; experiment: Inhibition of rat brain MAO-A using kynuramine substrate […] at 10 uM by spectrophotometric assay
[12] = tested on: MDR1; experiment: Apparent permeability from apical to basolateral side in MDCK2 cells expressing MDR1 at 200 ug/ml by UV-visible spectroscopy; assay type: ADME, cell-based, Canis lupus familiaris, MDCK-II; conditions: dog, MDCK-MDR1
[13] = tested on: MDR1; experiment: Apparent permeability from basolateral to apical side in MDCK2 cells expressing MDR1 at 200 ug/ml by UV-visible spectroscopy; assay type: ADME, cell-based, Canis lupus familiaris, MDCK-II; conditions: dog, MDCK-MDR1
[14] = tested on: MDR1; experiment: Efflux ratio of apparent permeability from basolateral to apical side to apical to basolateral side in MDCK2 cells expressing MDR1 at 200 ug/ml by UV-visible spectroscopy; assay type: ADME, cell-based, Canis lupus familiaris, MDCK-II; conditions: dog, MDCK-MDR1
[15] = tested on: SH-SY5Y; experiment: Neuroprotective activity in human SH-SY5Y cells assessed as inhibition H2O2-induced reduction of cell survival at 1 uM after 24 hrs by MTT assay; assay type: functional, cell-based
[16] = tested on: SH-SY5Y; experiment: Neuroprotective activity in human SH-SY5Y cells assessed as inhibition H2O2-induced reduction of cell survival at 10 uM after 24 hrs by MTT assay; assay type: functional, cell-based
[17] = target: T4, Amine oxidase [flavin-containing] A; experiment: Inhibition of human recombinant MAO-A using kynuramine substrate at 10 uM by spectrophotometric assay
[18] = target: Cholinesterase (Equus caballus) (UniProt P81908); experiment: Inhibition of equine serum BuChE at 10 uM by spectrophotometric Ellman's method
[19] = target: T2, Amine oxidase [flavin-containing] B; experiment: Inhibition of rat brain MAO-B using kynuramine substrate […] at 10 uM by spectrophotometric assay
[20] = target: T5, Amine oxidase [flavin-containing] B; experiment: Inhibition of human recombinant MAO-B using kynuramine substrate at 10 uM by spectrophotometric assay
[21] = target: T4, Amine oxidase [flavin-containing] A; experiment: Inhibition of human recombinant MAO-A using kynuramine substrate at 4 uM by spectrophotometric assay
[22] = target: T6, Cholinesterase; experiment: Inhibition of human serum BuChE at 10 uM by spectrophotometric Ellman's method

Chain of Cholinesterase (Equus caballus, UniProt P81908) (P81908 whole entry): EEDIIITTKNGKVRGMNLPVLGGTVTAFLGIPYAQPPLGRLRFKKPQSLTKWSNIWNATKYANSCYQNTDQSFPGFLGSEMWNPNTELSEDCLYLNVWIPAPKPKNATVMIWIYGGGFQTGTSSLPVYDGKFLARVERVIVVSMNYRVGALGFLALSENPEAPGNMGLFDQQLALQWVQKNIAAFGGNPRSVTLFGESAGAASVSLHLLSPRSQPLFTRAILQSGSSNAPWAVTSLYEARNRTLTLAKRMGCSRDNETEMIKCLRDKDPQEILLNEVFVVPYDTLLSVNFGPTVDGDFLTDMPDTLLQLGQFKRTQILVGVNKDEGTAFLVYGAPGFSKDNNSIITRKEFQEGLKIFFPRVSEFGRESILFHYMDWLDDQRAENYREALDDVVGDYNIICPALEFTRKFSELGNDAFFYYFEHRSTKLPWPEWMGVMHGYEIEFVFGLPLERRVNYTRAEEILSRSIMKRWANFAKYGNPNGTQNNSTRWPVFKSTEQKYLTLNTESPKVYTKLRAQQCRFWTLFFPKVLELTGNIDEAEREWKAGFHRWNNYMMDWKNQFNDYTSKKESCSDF
T3 sequence (O42275 whole entry): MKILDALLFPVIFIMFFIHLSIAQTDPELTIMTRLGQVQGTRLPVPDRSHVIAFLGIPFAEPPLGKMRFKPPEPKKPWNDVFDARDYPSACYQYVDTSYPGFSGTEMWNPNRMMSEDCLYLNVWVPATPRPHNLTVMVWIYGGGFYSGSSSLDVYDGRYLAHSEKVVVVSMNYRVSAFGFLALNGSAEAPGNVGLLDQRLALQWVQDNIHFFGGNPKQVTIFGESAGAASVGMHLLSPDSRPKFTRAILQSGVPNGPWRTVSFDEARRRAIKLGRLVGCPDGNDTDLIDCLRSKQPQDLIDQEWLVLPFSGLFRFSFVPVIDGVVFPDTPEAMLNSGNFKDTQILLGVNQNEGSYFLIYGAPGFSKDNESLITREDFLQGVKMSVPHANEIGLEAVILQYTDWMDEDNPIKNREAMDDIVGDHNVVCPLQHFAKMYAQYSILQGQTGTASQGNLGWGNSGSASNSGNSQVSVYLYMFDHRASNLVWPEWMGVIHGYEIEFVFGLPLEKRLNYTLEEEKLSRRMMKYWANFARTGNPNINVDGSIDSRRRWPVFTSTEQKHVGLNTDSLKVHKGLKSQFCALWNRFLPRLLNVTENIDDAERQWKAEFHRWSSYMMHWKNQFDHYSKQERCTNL
T6 sequence (P06276 whole entry): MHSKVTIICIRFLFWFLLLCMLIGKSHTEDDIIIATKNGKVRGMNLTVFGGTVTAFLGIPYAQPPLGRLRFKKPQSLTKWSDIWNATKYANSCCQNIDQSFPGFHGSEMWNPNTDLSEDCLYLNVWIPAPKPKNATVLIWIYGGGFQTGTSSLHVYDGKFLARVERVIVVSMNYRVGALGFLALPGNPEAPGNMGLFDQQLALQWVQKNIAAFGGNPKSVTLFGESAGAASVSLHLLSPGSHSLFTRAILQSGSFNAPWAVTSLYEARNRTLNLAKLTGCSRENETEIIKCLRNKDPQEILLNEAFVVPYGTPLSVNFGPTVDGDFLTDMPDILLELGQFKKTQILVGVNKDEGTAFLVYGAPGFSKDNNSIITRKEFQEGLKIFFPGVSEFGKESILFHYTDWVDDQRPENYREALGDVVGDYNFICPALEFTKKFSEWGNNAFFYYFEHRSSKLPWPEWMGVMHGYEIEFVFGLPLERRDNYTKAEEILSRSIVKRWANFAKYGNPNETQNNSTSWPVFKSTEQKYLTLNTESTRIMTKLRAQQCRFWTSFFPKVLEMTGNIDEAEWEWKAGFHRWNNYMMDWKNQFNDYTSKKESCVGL
Chain of Acetylcholinesterase (Homo sapiens, UniProt P22303) (P22303 whole entry): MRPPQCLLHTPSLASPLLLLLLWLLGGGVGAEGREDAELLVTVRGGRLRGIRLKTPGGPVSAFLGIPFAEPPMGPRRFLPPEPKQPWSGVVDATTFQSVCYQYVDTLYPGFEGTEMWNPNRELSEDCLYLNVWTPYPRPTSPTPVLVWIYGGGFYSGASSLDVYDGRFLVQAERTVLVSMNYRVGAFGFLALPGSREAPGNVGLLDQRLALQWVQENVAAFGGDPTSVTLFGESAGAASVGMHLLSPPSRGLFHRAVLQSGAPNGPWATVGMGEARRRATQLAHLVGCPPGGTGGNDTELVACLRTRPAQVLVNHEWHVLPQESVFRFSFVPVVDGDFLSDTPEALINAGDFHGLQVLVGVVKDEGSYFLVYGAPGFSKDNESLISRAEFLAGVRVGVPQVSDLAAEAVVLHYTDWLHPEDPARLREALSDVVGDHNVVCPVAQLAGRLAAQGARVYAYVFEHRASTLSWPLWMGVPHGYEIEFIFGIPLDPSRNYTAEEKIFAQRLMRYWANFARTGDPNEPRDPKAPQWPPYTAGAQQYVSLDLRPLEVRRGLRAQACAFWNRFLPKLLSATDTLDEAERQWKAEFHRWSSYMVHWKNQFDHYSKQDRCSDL
Chain of Cholinesterase (Equus caballus) (P81908 whole entry): as the sequence (P81908 whole entry) above

SMILES | IC50 [2] [µM] | IC50 [3] [µM] | IC50 [4] [µM] | IC50 [5] [µM] | IC50 [6] [µM] | IC50 [7] [µM] | inhibition at 10 µM [11] [%] | inhibition at 10 µM [17] [%] | further results
Cc1c(C)c2ccc(OCCCCCCN(C)Cc3ccccc3)cc2oc1=O | 1.7 | 0.095 | 0.67 | 0.191 | 0.321 | 0.34 |  |  | IC50 [1]: 0.51 µM; IC50 [8]: 0.95 µM; Ratio IC50 [9]: 0.3; Ki [10]: 0.08 µM
CN(Cc1ccccc1)Cc1ccc(COc2ccc3c(CO)cc(=O)oc3c2)cc1.Cl |  |  |  |  |  |  | 0 |  | Papp A→B at 200 ug/ml [12]: 19.1 ×10⁻⁶ cm/s; Papp B→A at 200 ug/ml [13]: 33.8 ×10⁻⁶ cm/s; efflux ratio at 200 ug/ml [14]: 1.77; Activity [15]: Active; Activity [16]: Active
Cc1c(C)c2ccc(OCCCN(C)Cc3ccccc3)cc2oc1=O | 0.33 | 1.3 | 7.8 |  | 0.134 | 1 | 35 | 17 | 
CCN(CCCCCCOc1ccc2c(C)c(C)c(=O)oc2c1)Cc1ccccc1 | 0.72 | 0.32 | 0.49 | 0.115 | 0.018 | 0.44 |  |  | IC50 [1]: 2.1 µM; Ratio IC50 [9]: 3
CN(Cc1ccc(C#N)cc1)Cc1ccc(COc2ccc3ccc(=O)oc3c2)cc1 | 0.27 | 5.6 | 4.4 |  | 0.045 | 6 | 6 | 0 | 
Cc1cc(=O)oc2cc(OCc3ccc(CN(C)Cc4ccc(C#N)cc4)cc3)ccc12 | 0.41 | 3.3 |  |  | 0.039 | 8.5 | 10 | 39 | inhibition [18]: 29%
CCN(CC)Cc1ccc(COc2ccc3ccc(=O)oc3c2)cc1 |  | 2.9 | 3.4 |  |  |  | 9 |  | inhibition at 10 µM [19]: 44%
CCN(CC)Cc1cccc(COc2ccc3ccc(=O)oc3c2)c1 |  | 1.7 | 6.8 |  |  |  | 43 |  | inhibition at 10 µM [19]: 35%
CN(Cc1ccccc1)Cc1ccc(COc2ccc3cc(C#N)c(=O)oc3c2)cc1 |  | 0.2 | 5.5 |  |  |  | 0 |  | inhibition at 10 µM [19]: 41%
COc1cc2c(cc1OC)C(=O)C(CC1CCN(Cc3ccccc3)CC1)C2 (stereo unspecified) [DONEPEZIL] |  |  |  |  |  |  |  | 0 | inhibition at 10 µM [20]: 0%
CN(Cc1ccccc1)Cc1ccc(COc2ccc3ccc(=O)[nH]c3c2)cc1 |  | 0.49 | 1.7 |  | 4.5 | 1.5 | 10 |  | inhibition at 10 µM [19]: 29%; inhibition at 4 µM [21]: 14%
Cc1cc2ccc(OCc3ccc(CN(C)Cc4ccc(C#N)cc4)cc3)cc2oc1=O | 1.7 | 7 |  |  | 0.017 |  | 15 | 11 | inhibition [18]: 16%
CN(Cc1ccc(COc2ccc3c(CO)cc(=O)oc3c2)cc1)Cc1cccc(Cl)c1 | 0.24 | 0.25 | 0.63 | 13 | 0.024 | 0.33 | 0 |  | inhibition [22]: 14%
Cc1c(C)c2ccc(OCc3ccc(CN(C)Cc4ccccc4)cc3)cc2oc1=O | 1.2 | 0.1 | 0.69 | 4.3 | 0.053 | 0.45 | 0 |  | inhibition [22]: 46%
Cc1c(C)c2ccc(OCCCCCNCc3ccccc3)cc2oc1=O | 0.5 | 0.94 | 1.8 | 0.39 | 0.029 | 0.3 |  |  | IC50 [1]: 2.2 µM; IC50 [8]: 0.95 µM
